Active and inactive are the calls of the source. No cut-off for these calls is given here.
What was measured:
Rattus norvegicus [1] = organism: Rattus norvegicus; experiment: In virto uterotonic activity in Sprague-Dawley rat uterus assessed as contraction at 20 ug/ml; type: functional, tissue-based
[2] = In virto uterotonic activity in Sprague-Dawley rat uterus expressed as g-force unit; type: functional
[3] = In virto uterotonic activity in Sprague-Dawley rat uterus assessed as contraction; type: functional
Rattus norvegicus [4] = organism: Rattus norvegicus; experiment: In virto uterotonic activity in Sprague-Dawley rat uterus assessed as contraction in presence of methysergide; type: functional, tissue-based
Rattus norvegicus [5] = experiment: In vivo uterotonic activity in estrous Sprague-Dawley rat uterus assessed as maximum peak contraction at 2400 ug/kg, iv within 20 mins by sponge tipped catheter method; type: functional
Rattus norvegicus [6] = organism: Rattus norvegicus; experiment: In virto uterotonic activity in Sprague-Dawley rat uterus assessed as contraction in presence of atropine; type: functional, tissue-based
Rattus norvegicus [7] = experiment: In vivo uterotonic activity in iv dosed estrous Sprague-Dawley rat uterus assessed as contraction by sponge tipped catheter method; type: functional

SMILES | Activity (Rattus norvegicus [1]) | Activity [2] | Activity [3] | Activity (Rattus norvegicus [4]) | Activity (Rattus norvegicus [5]) | Activity (Rattus norvegicus [6]) | Activity (Rattus norvegicus [7]) | Activity (Rattus norvegicus [7]; record 2)
CN1c2ccccc2C(=O)N2CCc3c([nH]c4ccccc34)[C@@H]21 | inactive | – | – | – | – | – | – | –
Cl.O=c1c2ccccc2nc2n1CCc1c-2[nH]c2ccccc12 [RUTAECARPINE HYDROCHLORIDE] | – | 0.72 g | <1 µg/mL | – | – | – | – | –
C[n+]1c2n(c(=O)c3ccccc31)CCc1c-2[nH]c2ccccc12.[Cl-] [DEHYDROEVODIAMINE CHLORIDE] | – | 2.15 g | 0.6 µg/mL | Active | 25.3 mmHg | Active | Dose-dependent effect | 80 µg/kg

Source: ChEMBL document CHEMBL1151350, “Uterotonic effect of Evodia rutaecarpa alkaloids” (1980)
